Experiments:
[1] = Hygroscopicity study by dynamic vapor sorption (DVS); type: physicochemical
Procedure: • Instrument model: DVS Intrinsic Plus Dynamic Vapor Sorption Analyzer from SMS (Surface Measurement Systems) • Test conditions: The sample (10 to 20 mg) is placed in a DVS sample pan for testing.
The detailed DVS parameters are as follows: • Temperature: 25° C. • Equilibrium: dm/dt=0.002%/min (minimum: 10 min, maximum: 180 min) • Drying: 120 min at 0% RH • RH (%) test steps: 10% • RH (%) test step range: 0%-95%-0%
The hygroscopicity evaluation is classified as follows:
• DVS Intrinsic Plus Dynamic Vapor Sorption Analyzer from SMS (Surface Measurement Systems).

[2] = Solid stability test under long-term conditions; type: physicochemical
From the text: Samples were taken for testing at the 1st and 2nd months, and the test results were compared with the initial test results at day 0.

[3] = Pharmacokinetic evaluation in beagle dogs; type: in vivo; conditions: Intragastric administration, 5 mg/kg, listed as Crystal Form A of Compound of Formula (I)
From the text: Male beagle dogs were selected as the experimental animals in this study. The LC/MS/MS method was employed to quantitatively determine the plasma drug concentrations at different time points after intravenous injection or intragastric administration of the test compound, aiming to evaluate the pharmacokinetic characteristics of the compound of the present disclosure in beagle dogs.
Beagle dogs (male, 7 to 10 kg, Beijing Mars Biotechnology Co., Ltd.).
A solution of the test compound was slowly injected intravenously into beagle dogs (fed) via the peripheral vein (vehicle: 5% DMSO/10% Solutol/85% H2O), or administered intragastrically to beagle dogs (fed). For intravenous administration, 0.5 mL of blood was collected from the peripheral vein at 0.083, 0.25, 0.5, 1, 2, 4, 6, 8, and 24 h after administration, placed in EDTA-2K anticoagulant tubes, and centrifuged at 3200 g for 10 minutes at 2 to 8° C. to separate the supernatant. For intragastric administration, 0.5 mL of blood was collected from the peripheral vein at 0.083, 0.25, 0.5, 1, 2, 4, 6, 8, and 24 h after administration, placed in EDTA-2K anticoagulant tubes, and centrifuged at 3200 g for 10 minutes at 2 to 8° C. to separate the supernatant. Plasma drug concentrations were determined by the LC-MS/MS method, and relevant pharmacokinetic parameters were calculated using Phoenix WinNonlin 6.3 or 8.3.5 pharmacokinetic software with non-compartmental model linear-log trapezoidal method.

[4] = Pressure (mechanical) stability, XRPD; type: physicochemical; conditions: 350 MPa
Procedure: (§1) • Instrument model: PANalytacal X-ray Powder Diffractometer • Test method: Approximately 10 to 20 mg of the sample is used for XRPD detection.
(§2) The detailed XRPD parameters are as follows: • X-ray tube: Cu, kα, (λ=1.540598 Å, λ=1.544426 Å). • X-ray tube voltage: 45 kV, X-ray tube current: 40 mA • Divergence slit: ⅛° • Scan mode: continuous • Scanning range (°2Theta): 3-40 • Scanning time per step (s): 46.7 • Scanning step size (°2Theta): […] • Test duration: approximately 5 min
The sample in the mold was compressed under a pressure of 350 MPa. The solid was collected for XRPD characterization.

[5] = Stability in solvents: anti-solvent addition, XRPD; type: physicochemical; conditions: anti-solvent Water
Procedure: as §1, §2
While stirring (1000 rpm), the anti-solvent listed in the table below was added dropwise to the clear solution until solids precipitated, or until the total volume of anti-solvent reached 10 mL. Samples without precipitation were stirred in suspension at 5° C., while clear samples were transferred to −20° C. for suspension stirring. If still clear, the samples were transferred to room temperature for volatilization. The precipitated solids were isolated and subjected to XRPD testing.

[6] = Solid stability test under high temperature, high humidity and strong light exposure; type: physicochemical
Procedure: Samples placed under high-temperature conditions were examined in an electric blast drying oven, while samples placed under high-humidity conditions were examined in a comprehensive drug stability test chamber. Sampling and testing were conducted on the 5th, 10th, and 30th days, and the test results were compared with the initial test results on day 0. Samples placed under strong light exposure conditions were left open, and sampling and testing were performed on the 5th and 10th days, with the test results compared to the initial test results on day 0.

[7] = Solid stability test under accelerated conditions; type: physicochemical
From the text: Samples were taken for testing at the 1st, 2nd, and 3rd months, and the test results were compared with the initial test results at day 0.

[8] = Stability in solvents: suspension stirring at room temperature, XRPD; type: physicochemical; conditions: acetone, tetrahydrofuran, 1,4-dioxane, methanol, ethanol, isopropanol, water and mixed solvents with water
Procedure: as §1, §2
The resulting suspensions were magnetically stirred at room temperature (1000 rpm) for 3 days, then centrifuged to collect the solids, which were subjected to XRPD testing.

[9] = 25° C./60% Relative Humidity, Sealed + Desiccant, 1 month
[10] = 25° C./60% Relative Humidity, Sealed + Desiccant, 2 month
[11] = High Humidity (Room Temperature/Relative Humidity: 92.5%, Open), Day 5
[12] = High Humidity (Room Temperature/Relative Humidity: 92.5%, Open), Day 10
[13] = High Temperature (60° C., Open), Day 5
[14] = High Temperature (60° C., Open), Day 10
[15] = Strong Light Exposure (5000 ± 500 Lux, 90 μw/cm^2, Open), Day 10
[16] = Strong Light Exposure test, Day 10 (Light Exposure Control)
[17] = 40° C./75% Relative Humidity, Sealed + Desiccant, 1 month
[18] = 40° C./75% Relative Humidity, Sealed + Desiccant, 2 month
[19] = 40° C./75% Relative Humidity, Sealed + Desiccant, 3 month

O=C1CCC(c2noc3ccc4c(NC(=O)CN5CCN(C[C@H]6CC[C@H](n7cc(NC(=O)c8coc(-c9ccnc(NCC%10CC%10)c9)n8)c(C(F)F)n7)CC6)CC5)cccc4c23)C(=O)N1 (stereo partly shown)
crystal form before and after DVS [1]: no change in crystal form
ΔW (hygroscopic weight gain) ([1]; DVS, 25° C. and 80% RH): 3.536%
Content [2, 9]: 99.5%
Total Impurities [2, 9]: 2.8%
Content [2, 10]: 99.2%
Total Impurities [2, 10]: 2.9%
Content ([2]; Day 0): 100.0%
Total Impurities ([2]; Day 0): 2.4%
stability (conclusion) ([2]; long-term conditions of 25° C./60% relative humidity): good stability
Area Under the Drug-Time Curve (0-inf) [3]: 8.18 µM·h
Peak Concentration [3]: 0.70 µM
Time to Peak Concentration [3]: 5.00 h
stability under compression mold pressure (conclusion) [4]: good stability
XRPD Results Anti-Solvent Addition ([5]; solvent Dimethyl sulfoxide): Amorphous
XRPD Results Anti-Solvent Addition ([5]; solvent N-Methylpyrrolidone): Amorphous
Content ([6]; Day 0): 100.0%
Total Impurities ([6]; Day 0): 2.4%
Content [6, 11]: 99.7%
Total Impurities [6, 11]: 2.4%
Content [6, 12]: 100.1%
Total Impurities [6, 12]: 2.5%
Content [6, 13]: 102.8%
Total Impurities [6, 13]: 2.5%
Content [6, 14]: 102.5%
Total Impurities [6, 14]: 2.5%
Content [6, 15]: 102.3%
Total Impurities [6, 15]: 2.6%
Content [6, 16]: 101.5%
Total Impurities [6, 16]: 2.4%
stability (conclusion) ([6]; high temperature, high humidity, and strong light exposure conditions): good stability
Content [7, 17]: 99.3%
Total Impurities [7, 17]: 2.7%
Content [7, 18]: 99.5%
Total Impurities [7, 18]: 2.7%
Content [7, 19]: 99.1%
Total Impurities [7, 19]: 2.7%
Content ([7]; Day 0): 100.0%
Total Impurities ([7]; Day 0): 2.4%
stability (conclusion) ([7]; accelerated conditions of 40° C./75% relative humidity): good stability
stability in solvents (conclusion) [8]: good stability
